Reference: patent US20240270771A1, “Compound containing phosphate group, pharmaceutical composition containing same, preparation method therefor and use thereof” (SHANGHAI RAISING PHARMACEUTICAL CO., LTD., priority 2021, published 2024)

Assays:
[1] = Acute toxicity test, gavage to mice; type: in vivo, Kunming strain mice; conditions: male mice; for Body weight before administration (mean ± standard deviation): baseline before gavage 2000 mg/kg once a day; for Body weight on Day 7 (mean ± standard deviation) / Body weight on Day 14 (mean ± standard deviation): gavage 2000 mg/kg once a day
Experimental: CMC-Na (sodium carboxymethylcellulose) was purchased from Shanghai Sinopharm Chemical Reagent Co., Ltd.
The test animals were Kunming strain mice, 18-20 g, provided by Beijing Keao Xieli Feed Co., Ltd.
• 1) Preparation of 0.7% CMC-Na: 0.7 g CMC-Na was added with distilled water to prepare a 0.7 g/100 mL solution. • 2) The compound to be tested was added to 0.7% CMC-Na to prepare a 100 mg/mL suspension. • 3) Each test group comprised 10 mice, all of which were male. Each mouse was orally administered with the test compound (2000 mg/kg) by gavage, once a day, for a cumulative period of 15 days. […] The body weights were recorded on the day of administration, days 7 and 14. 2.3. Test results

[2] = system: scopolamine-induced acute memory dysfunction model; test: Jumping stand test, scopolamine-induced acute memory dysfunction model; type: in vivo, ICR mice; conditions: scopolamine 2 mg/kg i.p., compound 200 mg/kg gavage once a day 3 weeks; for Number of errors: model group 1.7 ± 0.5; for Latency period: model group 68.5 ± 80.0
Experimental: The mice employed in the present test were purchased from Xipuer-BIKAI Laboratory Animal Co., Ltd., and they were SPF grade ICR mice, 3-4 weeks old, weighing 16-18 g.
Scopolamine hydrobromide trihydrate was purchased from aladdin, Product No.: S107418; Purity: 98%.
Test article preparation: 100 mg of the compound to be tested was weighed and added to 10 mL of 0.7% CMC-Na to prepare a 10 mg/mL suspension for use.
The laboratory mice were randomly divided into groups (9 or 10 mice per group). The mice in each group were administrated at a dosage of 0.2 mL/10 g body weight by oral gavage once a day for three weeks.
The laboratory animals were administered by gavage for 3 consecutive weeks according to the above administration dosage/specification. Training was started on the last day of administration, and the test was conducted 24 hours later.
The laboratory animals were administered by gavage for 3 weeks, and scopolamine (mouse: 2 mg/kg) was injected intraperitoneally 0.5 hour after the last dose. The animals were trained with YLS-3 TB jumping stand detector and tested for memory acquisition function after 24 hours. The latency period (the time from the start of counting to the first time of jumping off the stand) and the number of errors (the number of electric shock) were recorded.
The YLS-3 TB jumping stand detector were divided into five compartments by transparent boards. The bottom of the compartment was covered with a copper grid and applied with a voltage of 50 V A rubber pad stand with a height of 3.5 cm and a diameter of 3.5 cm was placed in each compartment to serve as a safe area for mice to avoid electric shock. Training of laboratory mice before the formal test: the laboratory mice were placed in the small compartment with a stand to get familiar with the environment for 5 min (the five compartments were connected), and then electrified for stimulation (all the laboratory mice were on the grid at this time), at the voltage of 50 V and current of 1.00 mA. Mice have the habit of jumping from a high place. If they jump, they will be shocked to produce memory. The current was applied for 5 min, which served as the training process.
Testing: the animals were put on the stand in the jumping compartment one by one. The time interval for putting each animal was 5 s. After the first animal was put on the stand, the electricity was applied immediately. The electricity was applied for 6 min. At the end of applying electricity, data were printed, and the latency period (the time from the start of counting to the first time of jumping off the stand) and the number of errors (the number of electric shock during the testing period) were recorded. […]

[3] = Pharmacokinetic study, absorption test (TM and TDP in whole blood); type: in vivo, SD rats; conditions: same drug dose, single gavage, rats
Experimental: (§1) The SD rats used in this test were purchased from Zhejiang Charles rive Laboratory Animal Co., Ltd. Both male and female rats of SPF grade weighting about 250 g were used.
(§2) Preparation of the test article: a proper amount of test article was weighed and ground as fine powder in a mortar. A certain amount of the vehicle was added to a proper container, and then the ground test article was added to the container under magnetic stirring. The mixture was stirred until the appearance is uniform.
The SD rats were divided into 3 groups (6 rats in each group, half male and half female). […] Blood was collected (about 200 µL/time) before drug administration (0 min) and 3 min, 8 min, 15 min, 30 min, 1 h, 2 h, 3 h, 5 h, 8 h, 12 h, 24 h and 48 h after drug administration. Blood was anticoagulated with EDTA and placed on ice after collection. […]
(§3) The concentrations of TM and TDP in the samples were determined by HPLC-FLD.
(§4) The non-compartment model of the DAS software was used to calculate the pharmacokinetic parameters of TM and TDP in blood of rats after administration. The concentration of TM in the brain tissue after the drug administration in rats was measured, and the mean value and standard deviation were calculated. The area under the drug-time curve AUC was calculated using the trapezoidal method.

[4] = Pharmacokinetic study, brain distribution test (TM in brain and whole blood); type: in vivo, SD rats; conditions: single gavage to rats
Experimental: as §1, §2
The male SD rats were divided into three groups (16 rats in each group) (4 animals were sacrificed at 4 time points). […] The animals were sacrificed at 5 min, 1 h, 3 h, and 9 h after the administration. The brain was taken out immediately after sacrifice, rinsed with ice-cold water and rinsed. 50 mg of the brain tissue was weighed, added to 0.45 mL of 100 mM dipotassium hydrogen phosphate buffer (pH=5.0) and homogenized. Blood samples were taken simultaneously and anticoagulated with EDTA. After collection, blood samples were placed on ice. 150 μL of whole blood was taken and 150 μL of 5.2% perchloric acid was added to determine TM. Another 4 animals were gavage administered with normal saline for the determination of endogenous TM concentration. All samples were frozen and stored in a −80° C. refrigerator.
as §3, §4

SMILES	Body weight before administration (mean ± standard deviation) [1] [g]	Body weight on Day 7 (mean ± standard deviation) [1] [g]	Body weight on Day 14 (mean ± standard deviation) [1] [g]	Number of errors [2]	Latency period [2] [s]	TM and TDP exposures compared with BTMP and Comparative compound 2 administration groups [3]	t1/2 of TDP compared with BTMP or Comparative compound 2 administration group [3]	AUC of TM in the brain, times of that of BTMP administration group [4] [times]	AUC of TM in the brain, times of that of the Comparative compound 2 administration group [4] [times]	AUC of TM in the brain ([4]; trapezoidal method, calculated after deducting the concentration at time zero) [ng·h/g]
C/C(=C(\CCOP(=O)(O)O)SC(=O)c1ccco1)N(C=O)Cc1cnc(C)nc1N [Compound 9, (Z)—S-(2-(N-((4-amino-2-methylpyrimidin-5-yl)methyl)formamido)-5-(phosphonooxy)pent-2-en-3-yl) furan-2-carbothioate]	32.1 ± 1.7	35.7 ± 1.4	36.3 ± 1.7	–	–	–	–	–	–	–
CCC(CC)C(=O)S/C(CCOP(=O)(O)O)=C(/C)N(C=O)Cc1cnc(C)nc1N [Compound 2, (Z)—S-(2-(N-((4-amino-2-methylpyrimidin-5-yl)methyl)formamido)-5-(phosphonooxy)pent-2-en-3-yl) 2-ethylbutanethioate]	–	–	–	0.9 ± 0.7	173.2 ± 98.7	–	–	–	–	–
CCCC(CCC)C(=O)S/C(CCOP(=O)(O)O)=C(/C)N(C=O)Cc1cnc(C)nc1N [Compound 1, (Z)—S-(2-(N-((4-amino-2-methylpyrimidin-5-yl)methyl)formamido)-5-(phosphonooxy)pent-2-en-3-yl) 2-propylpentanethioate]	31.4 ± 1.1	35.5 ± 1.0	36.7 ± 1.2	0.8 ± 0.8	180.0 ± 105.9	higher	significantly higher	1.56	2.08	1156.6
